Results as given in patent US20230031406A1, “COMPOUNDS AND COMPOSITIONS FOR TREATING CONDITIONS ASSOCIATED WITH NLRP ACTIVITY” (Novartis AG, priority 2018, published 2023).
Like-named read-outs stand apart in the source and are kept apart here. Each block holds one compound with its values, some of them ahead of it.

System: PMA-differentiated THP-1 cells
Assay: IL-1β production in PMA-differentiated THP-1 cells stimulated with gramicidin (hTHP-1 assay containing 2% fetal bovine serum; Procedures 1 and 2)
Format: cell-based, human
Details: 2% fetal bovine serum
Procedure, shortened: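 PMA 20 ng/ml 16-18 h → trypsinise → 50,000 cells/well, RPMI/2% FBS; cpd 1 h (11-pt, 100–0.0017 μM; DMSO 0.37%); gramicidin 5 μM, 2 h; spin; supernatant IL-1β via HTRF.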

[1] = Homo sapiens, THP-1, Table B2, class symbols, read-out: hTHP-1 IC50
[2] = Homo sapiens, THP-1, Table B2, numeric bounds, read-out: hTHP-1 IC50
[3] = Homo sapiens, THP-1, Table B1, class symbols, read-out: Average IC50 of compounds in hTHP-1 assay: hTHP-1 IC50
[4] = Table B2, class symbols, read-out: hTHP-1 IC50
[5] = Table B4, class symbols, read-out: hTHP-1 IC50
[6] = Table B1, class symbols, read-out: Average IC50 of compounds in hTHP-1 assay: hTHP-1 IC50

Structure (SMILES): Cc1c(C(F)(F)F)nc2c(c1NC(=O)N=S(N)(=O)c1cnn(C(F)F)c1)CCC2 (single isomer, unassigned) [Compound 617b, (S) or (R)-1-(Difluoromethyl)-N′-((3-methyl-2-(trifluoromethyl)-6,7-dihydro-5H-cyclopenta[b]pyridin-4-yl)carbamoyl)-1H-pyrazole-4-sulfonimidamide]
IC50 [2]: > 30000 nM

Structure (SMILES): CC(C)(O)c1ncc(S(N)(=O)=NC(=O)Nc2c3c([n+]([O-])c4c2CCC4)CCC3)s1 (stereo not drawn) [Compound 146, 8-(3-(amino(2-(2-hydroxypropan-2-yl)thiazol-5-yl)(oxo)-λ6-sulfaneylidene)ureido)-1,2,3,5,6,7-hexahydrodicyclopenta[b,e]pyridine 4-oxide]
IC50 [3]: 5000 to 30000 nM

Structure (SMILES): Cc1c(C(C)C)nc2c(c1NC(=O)N=S(N)(=O)c1sc(C(C)(C)O)cc1F)CCC2 (single isomer, unassigned) [Compound 645a, (R) or (S)-3-Fluoro-5-(2-hydroxypropan-2-yl)-N′-((2-isopropyl-3-methyl-6,7-dihydro-5H-cyclopenta[b]pyridin-4-yl)carbamoyl) thiophene-2-sulfonimidamide]
IC50 [4]: 40 to 200 nM

Structure (SMILES): Cc1c(C(F)(F)F)nc2c(c1NC(=O)N=S(N)(=O)c1ccn(C(F)F)n1)CCC2 (stereo not drawn) [Compound 621, 1-(Difluoromethyl)-N′-((3-methyl-2-(trifluoromethyl)-6,7-dihydro-5H-cyclopenta[b]pyridin-4-yl)carbamoyl)-1H-pyrazole-3-sulfonimidamide]
IC50 [1]: 1000 to 5000 nM

Structure (SMILES): CC(C)(O)c1nc(CCO)c(S(N)(=O)=NC(=O)Nc2c3c(nc4c2CCC4)CCC3)s1 (stereo not drawn) [Compound 118, N-((1,2,3,5,6,7-hexahydrodicyclopenta[b,e]pyridin-8-yl)carbamoyl)-4-(2-hydroxyethyl)-2-(2-hydroxypropan-2-yl)thiazole-5-sulfonimidamide]
IC50 [3]: 1000 to 5000 nM

Structure (SMILES): NS(=O)(=NC(=O)Nc1c2c(nc(C3CC3)c1C1CC1)CCC2)c1ccn(C(F)F)n1 (stereo not drawn) [Compound 728]
IC50 [1]: 1000 to 5000 nM

Structure (SMILES): CCc1c(C(F)(F)F)nc2c(c1NC(=O)N=S(N)(=O)c1nn(CC)cc1F)CCC2 (single isomer, unassigned) [Example 772, (S) or (R)-1-ethyl-N′-((3-ethyl-2-(trifluoromethyl)-6,7-dihydro-5H-cyclopenta[b]pyridin-4-yl)carbamoyl)-4-fluoro-1H-pyrazole-3-sulfonimidamide]
IC50 [5]: 5000 to 30000 nM

Structure (SMILES): Cc1c(C(=O)O)nc2c(c1NC(=O)N=S(N)(=O)c1cnc(C(C)(C)O)s1)CCC2 (stereo not drawn) [Compound 712]
IC50 [2]: > 30000 nM

Structure (SMILES): CCn1cc(Cl)c(S(N)(=O)=NC(=O)Nc2c(C)c(C(F)(F)F)nc3c2CCC3)n1 (single isomer, unassigned) [Compound 729b, (R) or (S)-4-Chloro-1-ethyl-N′-((3-methyl-2-(trifluoromethyl)-6,7-dihydro-5H-cyclopenta[b]pyridin-4-yl)carbamoyl)-1H-pyrazole-3-sulfonimidamide]
IC50 [4]: 40 to 200 nM

Structure (SMILES): NS(=O)(=NC(=O)Nc1c2c(nc3c1CCC31CC1)CCC2)c1nn(C(F)F)cc1F (stereo not drawn) [Compound 719]
IC50 [1]: 200 to 1000 nM

Structure (SMILES): Cc1c(C2CC2)nc2c(c1NC(=O)N=S(N)(=O)c1ccn(C(F)F)n1)CCC2 (stereo not drawn) [Compound 676, N′-((2-cyclopropyl-3-methyl-6,7-dihydro-5H-cyclopenta[b]pyridin-4-yl)carbamoyl)-1-(difluoromethyl)-1H-pyrazole-3-sulfonimidamide]
IC50 [1]: 1000 to 5000 nM

Structure (SMILES): CCc1c(C)nc2c(c1NC(=O)N=S(N)(=O)c1cnc(C(C)(C)O)s1)CCC2 (single isomer, unassigned) [Compound 117b, (R) or (S)-N′-((3-ethyl-2-methyl-6,7-dihydro-5H-cyclopenta[b]pyridin-4-yl)carbamoyl)-2-(2-hydroxypropan-2-yl)thiazole-5-sulfonimidamide]
IC50 [3]: 5000 to 30000 nM

Structure (SMILES): CC1CCc2c1nc1c(c2NC(=O)N=S(N)(=O)c2sc(C(C)(C)O)cc2F)CCC1 (single isomer, unassigned) [Compound 103ba, (R,R) or (R,S)-3-fluoro-5-(2-hydroxypropan-2-yl)-N′-((3-methyl-1,2,3,5,6,7-hexahydrodicyclo-penta[b,e]pyridin-8-yl)carbamoyl)thiophene-2-sulfonimidamide]
IC50 [6]: 8 to 40 nM

Structure (SMILES): CC(C)(O)c1cc(F)c(S(N)(=O)=NC(=O)Nc2cc(CC(F)(F)F)nc3c2CCC3)s1 (single isomer, unassigned) [Example 689, (R) or (S)-3-Fluoro-5-(2-hydroxypropan-2-yl)-N′-((2-(2,2,2-trifluoroethyl)-6,7-dihydro-5H-cyclopenta[b]pyridin-4-yl)carbamoyl)thiophene-2-sulfonimidamide]
IC50 (Homo sapiens, THP-1, Table B3, hTHP-1 assay, class symbols, read-out: IC50): 1000 to 5000 nM

Structure (SMILES): CCn1cc(F)c(S(N)(=O)=NC(=O)Nc2c3c(nc(C(F)(F)F)c2-c2ccccc2F)CCC3)n1 (single isomer, unassigned) [Example 780, (S) or (R)-1-ethyl-4-fluoro-N′-((3-(2-fluorophenyl)-2-(trifluoromethyl)-6,7-dihydro-5H-cyclopenta[b]pyridin-4-yl)carbamoyl)-1H-pyrazole-3-sulfonimidamide]
IC50 [5]: 200 to 1000 nM

Further lines, results first:

IC50 [1]: 1000 to 5000 nM
Structure (SMILES): CC1(C)CCc2c1nc1c(c2NC(=O)N=S(N)(=O)c2cnn3c2OCCC3)CCC1 (single isomer, unassigned) [Compound 304b, (R) or (S)-N′-((3,3-dimethyl-1,2,3,5,6,7-hexahydrodicyclopenta [b,e]pyridin-8-yl)carbamoyl)-6,7-dihydro-5H-pyrazolo[5,1-b][1,3]oxazine-3-sulfonimidamide]

IC50 [1]: 200 to 1000 nM
Structure (SMILES): CC1(C)CCc2c1nc1c(c2NC(=O)N=S(N)(=O)c2cnc(C(C)(CO)CO)s2)CCC1 (stereo not drawn) [Compound 724]

IC50 [2]: > 30000 nM
Structure (SMILES): CC(C)n1cc(CO)c(S(N)(=O)=NC(=O)Nc2c3c(nc4c2CCC4(C)C)CCC3)n1 (single isomer, unassigned) [Compound 682a, (S) or (R)-N′-((3,3-dimethyl-1,2,3,5,6,7-hexahydrodicyclopenta [b,e]pyridin-8-yl)carbamoyl)-4-(hydroxymethyl)-1-isopropyl-1H-pyrazole-3-sulfonimidamide]

IC50 [1]: 1000 to 5000 nM
Structure (SMILES): CC(C)(O)c1cc(Br)c(S(N)(=O)=NC(=O)Nc2c3c(nc4c2CCC4)CCC3)s1 (single isomer, unassigned) [Compound 690b, (R) or (S)-3-Bromo-N′-((1,2,3,5,6,7-hexahydrodicyclopenta [b,e]pyridin-8-yl)carbamoyl)-5-(2-hydroxypropan-2-yl)thiophene-2-sulfonimidamide]

IC50 [3]: 5000 to 30000 nM
Structure (SMILES): Cc1nc2c(c(NC(=O)N=S(N)(=O)c3cnc(C(C)(C)O)s3)c1C(C)C)CCC2 (single isomer, unassigned) [Compound 116b, (R) or (S)-2-(2-hydroxypropan-2-yl)-N′-((3-isopropyl-2-methyl-6,7-dihydro-5H-cyclopenta[b]pyridin-4-yl)carbamoyl)thiazole-5-sulfonimidamide]

IC50 (Homo sapiens, THP-1, Table B3, hTHP-1 assay, numeric values, read-out: IC50): ~30000 nM
Structure (SMILES): Cc1c(C(F)(F)F)nc2c(c1NC(=O)N=S(N)(=O)c1cc(CO)n(C(C)C)n1)CCC2 (single isomer, unassigned) [Example 720, (R) or (S)-5-(hydroxymethyl)-1-isopropyl-N′-((3-methyl-2-(trifluoromethyl)-6,7-dihydro-5H-cyclopenta[b]pyridin-4-yl)carbamoyl)-1H-pyrazole-3-sulfonimidamide]

IC50 [3]: 200 to 1000 nM
Structure (SMILES): Cc1c(C2CC2)nc2c(c1NC(=O)N=S(N)(=O)c1cc(C(C)(C)O)cs1)CCC2 (stereo not drawn) [Compound 175, N′-((2-cyclopropyl-3-methyl-6,7-dihydro-5H-cyclopenta[b]pyridin-4-yl)carbamoyl)-4-(2-hydroxypropan-2-yl)thiophene-2-sulfonimidamide]

IC50 [6]: 200 to 1000 nM
Structure (SMILES): Cc1sc(S(N)(=O)=NC(=O)Nc2c3c(nc4c2CCC4C)CCC3)nc1C(C)(C)O (stereo not drawn) [Compound 104, 4-(2-Hydroxypropan-2-yl)-5-methyl-N′-((3-methyl-1,2,3,5,6,7-hexahydrodicyclopenta[b,e]pyridin-8-yl)carbamoyl)thiazole-2-sulfonimidamide]

IC50 (Homo sapiens, THP-1, Table B1, numeric bounds, read-out: Average IC50 of compounds in hTHP-1 assay: hTHP-1 IC50): > 30000 nM
Structure (SMILES): CN(C)Cc1ccc(S(=O)(=NC(=O)Nc2c3c(nc4c2CCC4)CCC3)NC(=O)OC(C)(C)C)cc1 (stereo not drawn) [Compound 113, tert-butyl (4-((dimethylamino)methyl)-N-((1,2,3,5,6,7-hexahydrodicyclopenta[b,e]pyridin-8-yl)carbamoyl)phenylsulfonimidoyl)carbamate]

IC50 [6]: 5000 to 30000 nM
Structure (SMILES): CC(C)(O)c1ncc(S(N)(=O)=NC(=O)Nc2c3c(nc4c2CCC4)CCC3)s1 (single isomer, unassigned) [Compound 128b, (S) or (R)-N′-((1,2,3,5,6,7-hexahydrodicyclo-penta[b,e]pyridin-8-yl)carbamoyl)-2-(2-hydroxypropan-2-yl)thiazole-5-sulfonimidamide]

IC50 [4]: 1000 to 5000 nM
Structure (SMILES): CC(C)(O)c1sc(S(N)(=O)=NC(=O)Nc2c3c(nc4c2CCC42CC2)CCC3)cc1F (single isomer, unassigned) [Compound 614b, (S) or (R)-4-Fluoro-5-(2-hydroxypropan-2-yl)-N′-((1′,5′,6′,7′-tetrahydro-2′H-spiro[cyclopropane-1,3′-dicyclopenta[b,e]pyridin]-8′-yl)carbamoyl) thiophene-2-sulfonimidamide]

IC50 (Table B3, hTHP-1 assay, class symbols, read-out: IC50): 200 to 1000 nM
Structure (SMILES): NS(=O)(=NC(=O)Nc1c2c(nc3c1CCC31CC1)CCC2)c1ccn(CCO)n1 (single isomer, unassigned) [Example 647, (R) or (S)-1-(2-hydroxyethyl)-N′-((1′,5′,6′,7′-tetrahydro-2′H-spiro[cyclopropane-1,3′-dicyclopenta[b,e]pyridin]-8′-yl)carbamoyl)-1H-pyrazole-3-sulfonimidamide]
